Source: patent US10174384B2, “Use of the ZMIZ1 marker in directing treatment and predicting survival in cancer” (THE JOHNS HOPKINS UNIVERSITY, priority 2015, dated 2019)

Tested on: U251 cell line
Test: Cell titer glo viability, siRNA combined with temozolamide
Type: cell-based
Details: three days post treatment, combined with 1 mM temozolamide, p<0.0001 vs siRNA alone, P<0.01 vs temozolamide alone
Source text: siRNA s32836 targeting both the full ZMIZ1 transcript (uc001kaf.2) and the truncated ZMIZ1 transcript (uc001kag.2) was purchased from Life Technologies (Grand Island, N.Y., USA), and two custom designed Stealth siRNAs (referred to as 56 and 62) targeting specifically uc001kag.2 were designed (Life Technologies) for all in vitro assays. The sequence of stealth_56 is Sense: […] (SEQ ID NO:23), Anti-Sense: […] (SEQ ID NO:24), the sequence for stealth_62 is Sense: […] (SEQ ID NO:25), Anti-Sense: […] (SEQ ID NO:26). Appropriate scrambled siRNAs were used as controls. Hyper-expressing plasmids were designed for both the full and the truncated plasmids. Appropriate empty vector was used as control for all in vitro assays described. Cells were transfected using Lipofectamine 2000 and the respective siRNA or plasmid and were treated for 6 h. The media was changed after 6 h and the regular culture media was subsequently used.
U87 and U251 GBM cell lines were treated with varying doses of temozolamide (Sigma Aldrich, St Louis, Mo.). 1000 cells/well were seeded in a 96 well plate. […] Cells were followed for 3 days, and at the third day, viability was assessed with the cell titer glo assay.

For “56 siRNA: custom designed Stealth siRNA targeting specifically uc001kag.2; Sense SEQ ID NO:23, Anti-Sense SEQ ID NO:24 (sense CCGGUGCAACUUCUAGCCUUGUUGU; antisense ACAACAAGGCUAGAAGUUGCACCGG; Stealth siRNA, chemical modification pattern not given here)”, the “viability, combination compared to siRNA alone or temozolamide alone” value was “statistically significant decrease in viability”.
